# Measured values from PubChem BioAssay (NCI).
#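 Values below derive from 48-hour exposures of cells grown in 96-well plates, with endpoints linearly interpolated between the two concentrations bracketing the appropriate inhibition level. TGI: concentration producing complete growth inhibition.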
# Legend:
# Experiment in all cases: NCI tumour cell line growth inhibition, 48 h
# OVCAR-5 ovarian = system: OVCAR-5 ovarian
# SK-MEL-5 melanoma = system: SK-MEL-5 melanoma
# SK-MEL-28 melanoma = system: SK-MEL-28 melanoma
# OVCAR-8 ovarian = system: OVCAR-8 ovarian
# T-47D breast = system: T-47D breast
# UACC-257 melanoma = system: UACC-257 melanoma
# HOP-62 NSCLC = system: HOP-62 NSCLC
# NCI/ADR-RES ovarian = system: NCI/ADR-RES ovarian
# COLO 205 colon = system: COLO 205 colon
# SN12C renal = system: SN12C renal
# U251 CNS = system: U251 CNS
# HCT-116 colon = system: HCT-116 colon
# SNB-75 CNS = system: SNB-75 CNS
# SW-620 colon = system: SW-620 colon
# SF-539 CNS = system: SF-539 CNS
# CAKI-1 renal = system: CAKI-1 renal
# A498 renal = system: A498 renal
# SR leukemia = system: SR leukemia
# DU-145 prostate = system: DU-145 prostate
# EKVX NSCLC = system: EKVX NSCLC
Compound,TGI (OVCAR-5 ovarian) [µM],TGI (SK-MEL-5 melanoma) [µM],TGI (SK-MEL-28 melanoma) [µM],TGI (OVCAR-8 ovarian) [µM],TGI (T-47D breast) [µM],TGI (UACC-257 melanoma) [µM],TGI (HOP-62 NSCLC) [µM],TGI (NCI/ADR-RES ovarian) [µM],TGI (COLO 205 colon) [µM],TGI (SN12C renal) [µM],TGI (U251 CNS) [µM],TGI (HCT-116 colon) [µM],TGI (SNB-75 CNS) [µM],TGI (SW-620 colon) [µM],TGI (SF-539 CNS) [µM],TGI (CAKI-1 renal) [µM],TGI (A498 renal) [µM],TGI (SR leukemia) [µM],TGI (DU-145 prostate) [µM],TGI (EKVX NSCLC) [µM]
Cc1c(O)c(OC2OC(CO)C(O)C(O)C2O)cc2c1C=C[C@@H]1[C@@]2(C)C(=O)C[C@]2(C)[C@@H]([C@@](C)(O)C(O)/C=C/C(C)(C)O)[C@H](O)C[C@@]12C (stereo not given in full),> 100,> 100,> 100,> 100,> 100,> 100,> 100,> 100,> 100,> 100,> 100,> 100,> 100,> 100,> 100,> 100,> 100,> 100,> 100,> 100
CC(C)c1ccc(C2NC(=S)NC3=C2c2ccccc2C3=O)cc1 (stereo not given),> 64.2,52.8,57.9,> 62.1,35.5,> 58.7,> 57.1,33.3,> 59.2,> 61.4,> 58.7,> 58.4,36.7,> 78.2,37.8,> 58.5,> 60.8,30.6,31.7,> 58.6
S=C=Nc1ccc(CSc2nc3ccccc3[nH]2)cc1,32.4,29.4,37.3,32.3,31.8,34.1,32.1,33,29,31.3,30.9,44.5,32,31.4,33.4,33.5,46,65.4,29.6,40.4
O=C1c2c(Br)sc(Br)c2[C@@H](Cl)[C@H]1Cl,43,31.1,59.3,42.5,44.8,30.9,35.5,> 100,31.8,36.7,34.8,48.8,34.1,> 100,27.1,38.8,> 100,9.14,35.9,46.6
CCOC(=O)c1nc2ccccc2nc1NCc1ccc(OC)c(OC)c1,> 100,> 100,> 100,> 100,> 100,> 100,> 100,> 100,> 100,> 100,> 100,> 100,> 100,> 100,> 100,> 100,> 100,> 100,> 100,> 100
CNCCCNC(=S)Cn1cc(C)c(=O)[nH]c1=O,> 100,> 31.4,> 75.4,> 100,> 100,> 59.4,> 100,> 100,> 69.9,> 100,> 100,> 68,> 100,> 100,> 60.9,39.4,> 74.8,> 100,> 80.6,> 100
c1csc(-c2nccc3c2[nH]c2ccccc23)c1,85.5,31.4,43,42.8,63.2,35.7,39.2,54.8,28.9,38.8,75.9,31.8,42.8,46.3,32,71.5,33.9,48,63.9,84.9
C=C1C(=O)O[C@H]2C1C[C@@H](O)/C(C)=C/CC[C@@]1(C)O[C@H]21 (stereo not given in full),> 53.8,49.1,33.7,45.1,50,46.8,> 95.6,> 87.9,> 36.9,> 55.9,> 53.2,23.6,34.7,17.9,54.3,12.5,63.1,44.9,> 56,38.9
O=C(O)Cc1ccc(Nc2nc3ccccc3nc2C(=O)O)cc1,> 100,> 100,> 100,> 100,> 100,> 100,> 100,> 100,> 100,> 100,> 100,> 100,> 100,> 100,> 100,> 100,> 100,> 100,> 100,> 100
O=c1[nH]nc(-c2ccccc2)n1/N=C/c1ccco1,> 100,> 100,> 100,> 100,> 100,> 100,> 100,> 100,> 100,> 100,> 100,> 100,> 100,> 100,> 100,> 100,> 100,> 100,> 100,> 100
CC(=O)c1c(SCCN2CCOCC2)n(-c2ccccc2)c(=S)n(-c2ccccc2)c1=O,> 100,34.4,57.8,39.5,55.5,29.2,> 65,> 100,41.8,34.4,> 57,30.5,> 55.1,49.9,43.9,> 52.3,26.1,> 100,22.7,> 76.3
CCCN(CCC)C(=S)N/N=C(/C)c1ccccc1O,> 62.9,> 41.2,> 100,33,> 28.9,27.6,52.8,5.57,21.8,26,> 57.8,18.4,35.4,> 100,19.4,> 100,36.3,8.92,> 100,> 68.9
Cc1cc(S(=O)(=O)Nc2nnc3c4ccccc4cnn23)c(S)cc1Cl,> 100,> 100,> 100,> 100,> 100,> 100,> 100,> 100,> 100,> 100,> 84.2,> 100,> 100,> 100,> 95,> 100,> 100,> 100,> 100,> 100
O/N=C1\CC2(N3CCOCC3)CCC1(c1ccccc1)CC2,> 100,> 100,> 100,> 100,> 100,> 100,> 100,> 100,> 100,> 100,> 100,> 100,> 100,> 100,> 100,> 100,> 100,> 100,> 100,> 100
Cn1c(=O)c2sc3c4sc5c(=O)n(C)c6ccccc6c5c4sc3c2c2ccccc21,> 100,> 100,> 100,> 100,> 100,> 100,> 100,> 100,> 100,> 100,> 100,> 100,> 100,> 100,> 100,> 100,> 100,> 100,> 100,> 100
CCC(=O)NI1OC(=O)c2ccccc21,> 100,> 100,> 100,> 100,> 100,> 100,> 100,> 100,> 100,> 100,> 100,> 100,> 100,> 100,> 100,55.2,> 100,> 100,> 100,> 100
Cc1cccc(NC(=O)O/N=C(\Cl)C(C)C)c1,35.8,32.9,26.7,34.2,15.6,31.5,34.5,38.4,3.76,10.3,43.2,11.4,33.1,3.6,20.3,3.17,34.4,4.4,33,11.1
O=[N+]([O-])c1ccc(-n2nc3ccc4c(no[n+]4[O-])c3[n+]2[O-])c([N+](=O)[O-])c1,17,7.54,6.47,6.05,6.63,3.65,10.1,11,3.29,7.03,7.6,3.74,23.5,5.4,12.7,6.06,16.3,> 21.4,12.6,26.6
CC(C)(C)OC(=O)N1CC(CCl)c2ccc(O)cc21 (stereo not given),10.2,2.77,4.17,11.7,12.7,5.01,12.9,3.68,4.53,11.5,12.1,12.1,3.11,11,4.96,11.6,4.82,> 100,5.73,6.73
COC(=O)CN(CC(O)C(NC(C)=O)C(O)C=O)C(=O)OCc1ccccc1 (stereo not given),> 100,> 100,> 100,> 100,> 100,> 100,> 100,> 100,> 100,> 100,> 100,> 100,> 100,> 100,> 100,> 100,> 100,> 100,> 100,> 100
CN(CCNC(=O)c1c[nH]c2c1ccc1ccccc12)CCNC(=O)c1c[nH]c2c1ccc1ccccc12,12.3,21.1,4.16,3.91,2.7,3.94,6.03,13.1,3.24,11.7,4.03,3.39,3.38,3.08,3.39,10.1,8.47,4.69,5.06,11.1
CNC(=O)N(CCC#N)CCN(C(=O)N(C)C)c1ccccc1,> 100,> 100,> 100,> 100,> 100,> 100,> 100,> 100,> 100,> 100,> 100,> 100,> 100,> 100,> 100,> 100,> 100,> 100,> 100,> 100
Cc1c[nH]c(C(=O)O)c1-c1cccn1-c1ccc(Cl)cc1[N+](=O)[O-],> 100,> 100,> 100,> 100,> 100,> 100,> 100,> 100,> 100,> 100,> 100,> 100,> 100,> 100,> 100,> 100,> 100,> 100,> 100,> 100
